In patent US5597919A, “Pyrimidinyl or Pyridinyl alkenyl amine compounds” (priority 1995, dated 1997):
pEC50: −log10 of the molar value.

Legend:
[1] = system: dopamine release from synaptosomes of the striatal area of rat brain; assay type: biochemical, rat (Sprague-Dawley); conditions: for Dopamine Release Emax (% nicotine): rat, striatal synaptosomes
[2] = system: ganglionic-type neuronal nicotinic receptors (rat pheochromocytoma clonal line PC 12); assay: Interaction with ganglia: 86Rb+ efflux in PC12 cells; assay type: cell-based

| SMILES | pEC50 [1] | Dopamine Release Emax (% nicotine) [1] [% nicotine] | Ganglion Effect (% nicotine) [2] [% nicotine] |
| --- | --- | --- | --- |
| NCC/C=C/c1cncnc1.O=C(O)/C=C/C(=O)O [Sample No. 1, (E)-4-(5-pyrimidinyl)-3-butene-1-amine monofumarate] | 5.36 | 113 |  |
| CNCC/C=C/c1cncnc1 [Sample No. 2, (E)-N-methyl-4-(5-pyrimidinyl)-3-butene-1-amine] | 5.24 | 77 | 1 |
| COc1cncc(/C=C/CCN)c1 [Sample No. 3, (E)-4-[3-(5-methoxypyridin)yl]-3-butene-1-amine monofumarate] | 5.40 | 95 | 0 |
| CNCCC#Cc1cccnc1 [Sample No. 4, N-Methyl-4-(3-pyridinyl)-3-butyne-1-amine] | 5.08 | 87 | 59 |
| CNCC/C=C\c1cccnc1 [Sample No. 5, (Z)-metanicotine] | 4.95 | 88 |  |
| CNCC/C=C/c1ccc(C)nc1 [Sample No. 6, (E)-N-methyl-4-[3-(6-methylpyrindin)yl]-3-butene-1-amine] | 6.66 | 60 | 4 |
| CNCCCCc1cccnc1 [Sample No. 7, N-methyl-(3-1-pyridinyl)-butane-1-amine] |  | 72 | 31 |
| CNCC/C=C/c1cccnc1 [Sample No. 8, (E)-metanicotine] | 5.83 | 80 |  |
| CN1CCC[C@H]1c1cccnc1 [Sample No. C-1, (S)-(-)-nicotine, reference compound] | 6.94 |  |  |
